According to patent publication US12448383B2, “Compounds and methods for treatment of viral infections” (priority 2022, dated 2025):
Like-named read-outs stand apart in the source and are kept apart here.

Legend:
GI S9 stability = assay type: in vitro ADME; settings: human, s9, pH 7.4
Description: Example G: GI S9 Stability
Duplicate aliquots of test compound or positive control substrate (GS-7340) were added to S9 stock diluted with 100 mM phosphate buffered saline, pH 7.4, to obtain a protein concentration of 1.0 mg/mL. The S9 metabolic reactions were initiated by the addition of the substrates to the S9 reaction mixture to a final concentration of 2 μM. At 0, 10, 20, 30, 60 and 120 min, […] aliquots of the reaction mixture were transferred to plates containing […] of IS/Q solution. After quenching, the plates were centrifuged at 3000 g for 30 minutes, and 150 μL aliquots of each supernatant were diluted with 150 μL water. Aliquots ([…]) of the diluted supernatant were analyzed on a Thermo Q-Exactive mass spectrometer as described below. GI S9 Stability—No phenylmethylsulfonyl fluoride (PMSF): Similar to the procedure described above, test compounds were incubated at 2 μM with 1 mg/mL PMSF-free Intestinal S9 fractions. Samples are removed at 6 time points over the course of a 120 min experiment and the parent compound disappreance and reference compound A formation is determined by mass spectrometry.
Example K: Liquid Chromatography/Mass Spectroscopy Methods for S9 and Plasma Stability
Quantification of test compounds, Reference Compound A (S9 stability assay nucleoside metabolite), and controls was performed by analyte/internal standard peak area ratio (PAR) values measured on a Thermo Q-Exactive mass spectrometer coupled to a Dionex UltiMate 3000 HPLC with a Leap Technologies HTC PAL autosampler. The column used for analysis of test compounds and Reference Compound A was a Waters Acquity BEH C18 ([…] particle size, 2.1′50 mm). The column used for control (GS-7340) was a Thermo Hypersil GOLD ([…] particle size, 2.1′50 mm). Mobile phase A consisted of 0.1% (v/v) formic acid in water. Mobile phase B consisted of 0.1% (v/v) formic acid in acetonitrile. Elution of analytes was achieved by a series of linear gradients of acetonitrile in water containing 0.1°(v/v) formic acid. The mass spectrometer was calibrated on a weekly basis and mass tolerance of 5 ppm was used.

[1] = system: Caco-2 cells (clone C2BBe1); assay: CACO-2 permeability; assay type: in vitro ADME; design: unit not given here; settings: for DM Caco2 A to B: apical to basolateral, donor pH 6.5, receiver pH 7.4; for DM Caco2 B to A: basolateral to apical
In short: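 Caco-2 monolayers grown 21 days on collagen-coated transwells and checked for integrity by TEER. Donor buffer was HBSS/HEPES/glucose pH 6.5 with 200 μM BNPP; receiver was pH 7.4 with BSA. Compounds were dosed apically or basolaterally for A-to-B and B-to-A transport, with receiver sampling at 1 and 2 h, LC-MS/MS analysis and percent recovery.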

[2] = system: Respiratory syncytial virus recombinant with luciferase (RSV-Luc5) in HEp-2 cells; assay: microbe, parasite or virus in culture; assay type: cell-based; settings: human respiratory syncytial virus
[3] = system: SARS Coronavirus 2 recombinant with NanoLuc (SARS-CoV2-NLuc) in A549-hACE2 cells; assay: organism not typed; assay type: cell-based
Plasma stability = assay type: in vitro ADME; design: unit not given here; settings: 37° C., 2 μM substrate
In short: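 Reaction mixture was sampled at 0.05, 0.5, 1, 2, 3 and 4 hr into quench solution containing internal standard, then centrifuged and diluted with water. Remaining analyte was measured by LC-MS on a Q-Exactive using a formic acid/acetonitrile gradient, with 5 ppm mass tolerance.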

[4] = GI S9 stability - no PMSF; assay type: in vitro ADME; settings: pH 7.4; human intestinal S9, PMSF-free; read-out: GIS9-HUMAN-NoPMSF T1/2
In short: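 Compounds were incubated at 2 μM with PMSF-free intestinal S9 (1 mg/mL protein) in 100 mM PBS, pH 7.4, sampling at 6 time points over 120 min. Parent disappearance and formation of the nucleoside metabolite Reference Compound A were quantified by LC-MS (Q-Exactive) using analyte/internal standard peak area ratios.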

[5] = CC50 MT4 cytotoxicity (Cell-Titer Glo); assay type: cell-based; settings: human
In short: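 Uninfected MT-4 and HEp-2 cells cultured 4-5 days at 37° C with 3-fold serially diluted compound (15 nM to 100,000 nM). Viability read by Cell-Titer Glo luminescence; untreated and 2 μM puromycin wells set 100% and 0%. CC50 from non-linear regression as concentration reducing viability by 50%.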

[6] = system: Respiratory syncytial virus recombinant with luciferase (RSV-Luc5) in Normal Human Bronchial Epithelial (NHBE) cells; assay: microbe, parasite or virus in culture; assay type: cell-based
[7] = Stability in pH2 buffered solution; assay type: physicochemical; settings: pH2 phosphate buffer, 40° C., 24 h; Table N2
In short: (§1)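 Compounds diluted from 1 mg/mL acetonitrile stock to 50 μg/mL in 50 mM phosphate buffer with 150 mM NaCl at pH2 or pH7, held at 40° C. for 24 hrs. UPLC sampling at 0, 3, 6, 9, 12 hrs, plus 24 hrs from oven-stored duplicate; reported as % area normalized of compound peak.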

[8] = Thermodynamic solubility in pH7 buffered solution; settings: 50 mM phosphate buffer pH7, 150 mM NaCl, ambient temperature, 24 hours
Description: Solubility was determined at ambient temperature in a 50 mM phosphate buffered pH7 solution with 150 mM NaCl (to achieve isotonicity). Solids were added to the buffered solution in 1.5-mL Eppendorf tubes, vortexed for 1 minute, then agitated for 24 hours in an Eppendorf ThermoMixer C. […] Supernatants were diluted to a volume of 1 mL with 30:70 v/v acetonitrile:water. All diluted supernatants were analyzed by UPLC using a Waters Acquity UPLC with a PDA UV detector.

[9] = Stability in pH7 buffered solution; assay type: physicochemical; settings: pH7 phosphate buffer, 40° C., Table N2
In short: as §1

[10] = HEp-2, 72 h, read-out: RSV Hep2 EC50

Compound	half-life at 2 µM (GI S9 stability) [min]	DM Caco2 A to B [1]	DM Caco2 B to A [1]	EC50 [2, 10] [nM]	EC50 ([3]; 48 h; read-out: SARS-CoV2 EC50) [nM]	STA Human Plasma 37 (Plasma stability)	half-life at 2 µM [4] [min]	CC50 [5] [nM]	EC50 ([6]; 72 h, read-out: RSV NHBE EC50) [nM]	pH 2 Stability 24 h % AN [7] [% AN]	Sol pH 7 [8]	pH 7 Stability 24 h % AN [9] [% AN]	EC50 ([3]; 48 h, read-out: SARS-CoV2 EC50) [nM]	EC50 ([2]; HEp-2, read-out: EC50 RSVFluc-Hep2 384 V2) [nM]	EC50 ([3]; A549; read-out: EC50 SARS CoV2 NanoLuc A549 384) [nM]	logD (physchem)	EC50 ([6]; read-out: EC50 RSVFluc-NHBE 384 V2) [nM]
CC(C)(C)COC(=O)OC[C@H]1O[C@@](C#N)(c2ccc3c(N)ncnn23)[C@H](O)[C@@H]1O [Compound 3, ((2R,3S,4R,5R)-5-(4-aminopyrrolo[2,1-f][1,2,4]triazin-7-yl)-5-cyano-3,4-dihydroxytetrahydrofuran-2-yl)methyl neopentyl carbonate]	81	1.23	9.8	545	796	82.745	0.8	> 50000	1600								
N#C[C@@]1(c2ccc3c(N)ncnn23)O[C@H](COC(=O)OCc2ccccc2)[C@@H](O)[C@H]1O [Compound 13, ((2R,3S,4R,5R)-5-(4-aminopyrrolo[2,1-f][1,2,4]triazin-7-yl)-5-cyano-3,4-dihydroxytetrahydrofuran-2-yl)methyl benzyl carbonate]	35.3	0.59	8.8	444	1250	3		39100	1530	98	0.12	97					
N#C[C@@]1(c2ccc3c(N)ncnn23)O[C@H](COC(=O)OC2CCCCCCC2)[C@@H](O)[C@H]1O [Compound 14, ((2R,3S,4R,5R)-5-(4-aminopyrrolo[2,1-f][1,2,4]triazin-7-yl)-5-cyano-3,4-dihydroxytetrahydrofuran-2-yl)methyl cyclooctyl carbonate]	56.3	1.84	21.7	350		262.42	1.07	> 50000	380	97		97	1560				
CCC(CC)COC(=O)OC[C@H]1O[C@@](C#N)(c2ccc3c(N)ncnn23)[C@H](O)[C@@H]1O [Compound 15, ((2R,3S,4R,5R)-5-(4-aminopyrrolo[2,1-f][1,2,4]triazin-7-yl)-5-cyano-3,4-dihydroxytetrahydrofuran-2-yl)methyl (2-ethylbutyl) carbonate]	33.1	1.46	12	530	1240	40.503		> 50000	900	98	0.26	97					
COC(C)(C)COC(=O)OC[C@H]1O[C@@](C#N)(c2ccc3c(N)ncnn23)[C@H](O)[C@@H]1O [Compound 54, ((2R,3S,4R,5R)-5-(4-aminopyrrolo[2,1-f][1,2,4]triazin-7-yl)-5-cyano-3,4-dihydroxytetrahydrofuran-2-yl)methyl (2-methoxy-2-methylpropyl) carbonate]	692	0.25	3.8	587	5690	108	4.33	> 50000	1020								
CC(C)OC(=O)Nc1ncnn2c([C@]3(C#N)O[C@H](COC(=O)OC(C)C)[C@@H](OC(=O)OC(C)C)[C@H]3O)ccc12 [Compound 62, isopropyl (7-((2R,3R,4S,5R)-2-cyano-3-hydroxy-4-((isopropoxycarbonyl)oxy)-5-(((isopropoxycarbonyl)oxy)methyl)tetrahydrofuran-2-yl)pyrrolo[2,1-f][1,2,4]triazin-4-yl)carbamate]	31.1	4.19	12.12	> 50000	≥ 5000	488.7		> 50000	≥ 5000	61	0.1	10					
COc1ccc(OC(=O)OC[C@H]2O[C@@](C#N)(c3ccc4c(N)ncnn34)[C@H](O)[C@@H]2O)cc1 [Compound 111, ((2R,3S,4R,5R)-5-(4-aminopyrrolo[2,1-f][1,2,4]triazin-7-yl)-5-cyano-3,4-dihydroxytetrahydrofuran-2-yl)methyl (4-methoxyphenyl) carbonate]	53.1	0.625	11.22			35	3.93	> 50000						220	3420	1.5	1300
